Experimental data from US9238626B2 (priority 2012, dated 2016).
Structures can show the parent of a compound that is named as a salt. Where two headings read alike, the source gives them in different places.

Columns and labels:
[1] = molecular target: β-Secretase (BACE-1) (Homo sapiens (Human), UniProt P56817); assay: β-Secretase (BACE-1) inhibition assay; type: biochemical; conditions: read-out: BACE-1 IC50
Procedure: β-Secretase (BACE-1, Sigma) inhibition studies were performed by employing a peptide mimicking APP sequence as substrate (methoxycoumarin-[…]dinitrophenyl, M-2420, Bachem). The following procedure was employed: 5 μL of test compound (or DMSO, if preparing a control well) were pre-incubated with 175 μL of the enzyme (in 20 mM sodium acetate containing CHAPS 0.1% w/v) for 1 h at room temperature. The substrate (3 μM, final concentration) was then added and left to react for 15 min. The fluorescence signal was read at λem=405 nm (λexc=320 nm). […] The fluorescence intensities with and without inhibitor were compared and the percent inhibition due to the presence of test compounds was calculated. The background signal was measured in control wells containing all the reagents, except BACE-1 and subtracted. […] Inhibition curves were obtained by plotting the % inhibition versus the logarithm of inhibitor concentration in the assay sample. The linear regression parameters were determined and the IC50 extrapolated (GraphPad Prism 4.0, GraphPad Software Inc.).

[2] = molecular target: Aβ1-42 (Homo sapiens, UniProt P05067); assay: Aβ1-42 self-aggregation inhibition assay (thioflavin T); type: biochemical; conditions: inhibitor 10 μM, [Aβ]/[I]=5/1
Procedure: As reported in a previously published protocol (cf. M. Bartolini et al., “Insight into the Kinetic of Amyloid Beta (1-42) Peptide Self-Aggregation: Elucidation of Inhibitors' Mechanism of Action. ChemBioChem 2007, vol. 8, pp. 2152-2161), HFIP pretreated Aβ1-42 samples (Bachem AG, Switzerland) were solubilized with a CH3CN/0.3 mM Na2CO3250 mM NaOH (48.4:48.4:3.2) mixture to obtain a 500 μM solution. Experiments were performed by incubating the peptide in 10 mM phosphate buffer (pH=8.0) containing 10 mM NaCl, at 30° C. for 24 h (final Aβ concentration 50 μM) with and without inhibitor (10 μM, Aβ/inhibitor=5/1). Blanks containing the tested inhibitors were also prepared and tested.

[3] = molecular target: Electrophorus electricus (ee) AChE (Electrophorus electricus (Electric eel) (Gymnotus electricus), UniProt O42275); assay: AChE inhibition assay (Ellman), eeAChE; type: biochemical
Electrophorus electricus (ee) AChE, sequence (O42275 whole entry, looked up): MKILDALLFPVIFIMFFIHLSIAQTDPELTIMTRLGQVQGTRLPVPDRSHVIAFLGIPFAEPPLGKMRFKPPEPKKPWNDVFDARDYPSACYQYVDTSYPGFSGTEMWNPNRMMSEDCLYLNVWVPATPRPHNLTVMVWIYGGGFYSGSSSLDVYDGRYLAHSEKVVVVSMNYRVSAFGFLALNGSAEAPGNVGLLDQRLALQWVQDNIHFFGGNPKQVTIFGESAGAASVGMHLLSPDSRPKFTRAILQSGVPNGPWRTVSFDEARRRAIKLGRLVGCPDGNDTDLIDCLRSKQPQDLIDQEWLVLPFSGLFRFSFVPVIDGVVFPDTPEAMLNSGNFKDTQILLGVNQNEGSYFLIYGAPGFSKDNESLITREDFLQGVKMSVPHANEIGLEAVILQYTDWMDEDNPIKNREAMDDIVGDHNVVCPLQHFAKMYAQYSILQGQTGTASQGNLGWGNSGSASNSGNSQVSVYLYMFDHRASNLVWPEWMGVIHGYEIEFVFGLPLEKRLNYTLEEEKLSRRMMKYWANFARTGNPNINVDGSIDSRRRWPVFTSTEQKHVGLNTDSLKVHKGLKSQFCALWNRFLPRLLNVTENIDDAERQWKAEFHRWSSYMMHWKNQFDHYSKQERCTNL
Procedure: AChE inhibitory activity of compounds (Ia)-(Ie) and (−)-(Ib) and (+)-(Ib) was evaluated spectrophotometrically at 25° C. by the method of Ellman et al., using recombinant human AChE (hAChE) and Electrophorus electricus (ee) AChE and acetylthiocholine iodide as substrate (cf. G. L. Ellman et al., “New and Rapid Colorimetric Determination of Acetylcholinesterase Activity” Biochem. Pharmacol. 1961, vol. 7, pp. 88-95). For eeAChE inhibitory activity determination, the reaction took place in a final volume of 300 μL of 0.1 M phosphate-buffered solution pH 8.0, containing 0.03 unit/mL of ee AChE and 333 μM 5,5′-dithiobis(2-nitrobenzoic) acid (DTNB) solution used to produce the yellow anion of 5-thio-2-nitrobenzoic acid. Inhibition curves were performed in duplicates using at least 10 increasing concentrations of inhibitor and preincubating at 37° C. for 20 min. One duplicate sample without inhibitor was always present to yield 100% of AChE activity. Then, substrate acetylthiocholine (450 μM) was added and the reaction was developed at 37° C. for 5 min. The color production was measured at 414 nm.
Results are expressed as mean±S.E.M. of at least 4 experiments performed in duplicate. DTNB, acetylthiocholine, butyrylthiocholine, and enzymes were purchased from Sigma.

[4] = tested on: hippocampal slices incubated with Aβ oligomers; assay: Electrophysiology (LTP) in hippocampal slices incubated with Aβ oligomers; type: cell-based, C57bl6 male mice
Procedure: Hippocampal slices were prepared according to standard procedures previously described. Briefly, transverse slices (350 μm) from the dorsal hippocampus were cut under cold artificial cerebrospinal fluid (ACSF, in mM: 124 NaCl, […], 10 D-glucose, 2.69 KCl, 1.25 KH2PO4 2.5 CaCl2, 1.3 MgSO4, and 2.60 NaHPO4) using a Vibratome (Leica VT 1000 s, Germany) and incubated in ACSF for 1 h at room temperature. In all experiments, 10 μM picrotoxin (PTX) was added to suppress inhibitory GABAA transmission. Slices were transferred to an experimental chamber (2 mL), superfused (3 mL/min, at 20-22° C.) with gassed ACSF and visualized by trans-illumination with a binocular microscope (MSZ-10, Nikon, Melville, N.Y.). To evoke field excitatory postsynaptic potentials (fEPSPs), we stimulate with bipolar concentric electrodes (Platinum/Iridium, 125 μm OD diameter, FHC Inc., Bowdoin, Me.) generated by a stimulator (Axon 700b, Molecular Devices, Sunnyvale, Calif.) and connected to an isolation unit (Isoflex, AMPI, Jerusalem, Israel). The stimulation was in the Stratum Radiatum within 100-200 μm from the recording site. The paired pulse facilitation index was calculated by ((R2−R1)/R1), where R1 and R2 were the peak amplitudes of the first and second fEPSP respectively. To generate LTP we used Theta Burst Stimulation (TBS) consisting of 5 trains of stimulus with an inter-train interval of 20 s. Each train consisted of 10 bursts at 5 Hz and each burst having 4 pulses at 100 Hz. To generate LTD we used Low Frequency Stimulation (LFS) consisting in 900 paired pulses at 1 Hz. […] Evoked postsynaptic responses were analyzed off-line, using an analysis software (pClampfit, Molecular Devices), which allowed visual detection of events, computing only those events that exceeded and arbitrary threshold.
Electrophysiological registers of hippocampal slices of 2-month-old C57bl6 male mice were assessed to evaluate the synaptic transmission through the long-term potentiation (LTP). […] In FIG. 3B, the quantification at min 60 of fEPSP are shown. […]

[5] = tested on: APP-PS1 mice; assay: Memory flexibility test (Morris water maze variant) in APP-PS1 mice; type: in vivo, mouse
[6] = tested on: APP-PS1 mice; assay: Total load of brain amyloid deposits in APP-PS1 mice (Aβ 6E10 immunodetection); type: in vivo, mouse
[7] = tested on: APP-PS1 mice; assay: Senile plaques in APP-PS1 mice (Thioflavin-S staining); type: in vivo, mouse
[8] = slices with Aβ oligomers, FIG. 3A
[9] = 7-month-old APP-PS1 mice, FIG. 7A
[10] = 11-month-old APP-PS1 mice, FIG. 7B
[11] = 7-month-old APP-PS1 mice, FIG. 8
[12] = 11-month-old APP-PS1 mice, FIG. 8B

β-Secretase (BACE-1), sequence (P56817 46-501): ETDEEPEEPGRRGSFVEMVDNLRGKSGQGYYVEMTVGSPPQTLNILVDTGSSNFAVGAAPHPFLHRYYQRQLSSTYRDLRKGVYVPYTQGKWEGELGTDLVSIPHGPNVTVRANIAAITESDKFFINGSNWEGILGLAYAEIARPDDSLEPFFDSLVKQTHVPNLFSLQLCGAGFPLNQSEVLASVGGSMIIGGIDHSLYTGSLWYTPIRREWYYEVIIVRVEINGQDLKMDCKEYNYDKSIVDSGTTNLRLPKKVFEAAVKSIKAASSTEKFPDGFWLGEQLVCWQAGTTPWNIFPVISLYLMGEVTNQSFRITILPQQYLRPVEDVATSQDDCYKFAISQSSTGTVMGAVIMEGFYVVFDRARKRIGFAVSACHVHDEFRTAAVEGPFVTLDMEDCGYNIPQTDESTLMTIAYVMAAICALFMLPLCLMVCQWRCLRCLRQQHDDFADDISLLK

Structure (SMILES) | IC50 [1] [nM] | IC50 ([1]; stated in text) [nM] | Aβ1-42 self-induced aggregation (%) [2] [%] | IC50 [3] [nM] | LTP induction (in words) [4, 8] | cognitive behavior in memory flexibility test (in words) ([5]; 7-month-old APP-PS1 mice) | cognitive behavior in memory flexibility test (in words) ([5]; 11-month-old APP-PS1 mice) | Aβ-positive aggregate area, brain cortex [6, 9] | total Aβ load, cortex [6, 10] | Th-S positive area, cortex [7, 11] | fEPSP magnitude response at min 60 ([4]; compared to slices treated with Aβ oligomers, FIG. 3B) [%] | LTP induction [4, 8] [%] | number of trials to reach criteria ([5]; 7-month-old APP-PS1 mice, i.p. three times per week for 4 weeks, untreated about 12-13 trials) [trials] | Aβ load, hippocampus [6, 9] | total Aβ load, hippocampus [6, 10] | Th-S amyloid aggregates, hippocampal region [7, 11] | Th-S amyloid deposits, cortex [7, 12] | Th-S amyloid deposits, hippocampus [7, 12]
CC1=C[C@@H]2Cc3nc4cc(Cl)ccc4c(NCCCCCCCCCNC(=O)c4cc(O)c5c(c4)C(=O)c4cccc(O)c4C5=O)c3[C@H](C1)C2 [(−)-(Ib)•HCl, (−)-(7S,11S)—N-{9-[(3-chloro-6,7,10,11-tetrahydro-9-methyl-7,11-methanocycloocta[b]quinolin-12-yl)amino]nonyl}-9,10-dihydro-4,5-dihydroxy-9,10-dioxoanthracene-2-carboxamide] | 80 ± 10 | 80 | 43.2 ± 4.7 | 9.4 ± 1.6 | no LTP induction | improved behavior within days | no significant change | significant reduction | reduction in total Aβ load | significant reduction in the Th-S positive area | – | – | – | – | – | – | – | –
CC1=C[C@H]2Cc3nc4cc(Cl)ccc4c(NCCCCCCCCCNC(=O)c4cc(O)c5c(c4)C(=O)c4cccc(O)c4C5=O)c3[C@@H](C1)C2 [(+)-(Ib)•HCl, (+)-(7R,11R)—N-{9-[(3-chloro-6,7,10,11-tetrahydro-9-methyl-7,11-methanocycloocta[b]quinolin-12-yl)amino]nonyl}-9,10-dihydro-4,5-dihydroxy-9,10-dioxoanthracene-2-carboxamide] | 80 ± 10 | 80 | 38.4 ± 5.5 | 98.9 ± 14.2 | – | – | took less trials to reach learning criteria | significant reduction | reduction in total Aβ load | significant reduction in the Th-S positive area | 200 | 200 | 7 | diminished the load levels of Aβ oligomers | reduction in total load of Aβ | reduction in the amyloid aggregates | reduction in amyloid deposits | reduction in amyloid deposits
